Laboratory results from publication PMC5344539, “Nematode neuropeptides as transgenic nematicides” (PLoS Pathogens, 2017).
Entries after “also recorded” stand apart in the source; their conditions may differ.

Assays:
M. incognita J2s [1] = experiment: Serotonin-induced stylet thrusting assay; assay type: in vivo, Meloidogyne incognita; details: for effect on serotonergic-induced stylet thrusting (in words): 100 μM uNLP, 24 h, 5 mM serotonin, relative to controls; for % Thrusting: Fig 1C, J2s incubated in 100 μM uNLP for 24 h, stylet thrusts in 5 mM serotonin, counted 1 min, normalised to control = 100%, mean, at least 30 J2s
Experimental: (§1) Predicted uNLPs from both M. incognita and G. pallida were synthesised by EZBiolab and dissolved into pH adjusted ddH2O to make a 5 mM stock which was aliquoted and stored at -20°C. J2s of both M. incognita and G. pallida were incubated for 24 hours in 200 μl of each peptide in a 24 well plate (SPL Lifesciences, South Korea) at a defined concentration.
(§2) Stylet thrusting assays where performed by incubating 100 M. incognita or G. pallida J2s for 15 minute in 5 mM or 2 mM serotonin (Sigma Aldrich, USA), respectively. J2s were placed on a glass slide and stylet thrusts were counted for randomly selected J2s, for 1 minute each. Counts for a given cohort of J2s were taken in a maximum interval of 15 minutes. Longer counting intervals, making for longer serotonin incubations, yielded inconsistent results. At least 30 J2s were counted for each neuropeptide treatment.

M. incognita J2s [2] = experiment: Tomato invasion assay with uNLP pre-treated J2s; assay type: in vivo, Meloidogyne incognita; details: for effect on host invasion (in words): 100 μM uNLP, 24 h, tomato cv. Moneymaker, relative to controls; for % Invasion: Fig 1B, 500 J2s incubated in 100 μM uNLP for 24 h, single tomato seedling, 24 h at 23°C, normalised to negative control = 100%, mean
Experimental: as §1
(§3) Tomato seeds were sterilised with 2.5% NaOCl for 15 minutes, washed 5 times in ddH20 and germinated on 0.5% Murashige and Skoog plates at 23°C. […] Invasion assays were performed by mixing 500 pre-treated M. incognita or G. pallida J2s with agar slurry and a single tomato seedling (2 days post germination) in a 6 well plate. Assays were left at 23°C for 24 hours in the case of M. incognita and at 18°C for 24 hours in the case of G. pallida under a 16 hour light and 8 hour darkness cycle. Seedlings were stained using acid fuschin [69] and the number of nematodes within the roots counted. At least five seedlings were used for M. incognita infections assays, with at least 15 seedlings used for G. pallida infections assays (due to increased variation).

M. incognita J2s [3] = experiment: Chemosensory (chemotaxis) assay of uNLP pre-treated J2s towards tomato root exudate; assay type: in vivo, Meloidogyne incognita; details: for effect on chemosensation (in words): 100 μM uNLP, 24 h, relative to controls; for CI score: Fig 1A, J2s incubated in 100 μM uNLP for 24 h, tomato cv. Moneymaker root exudate vs water agar plugs, counted after 3 h, mean of 10 replicates of 100 J2s, control 0.4426
Experimental: as §1
(§4) A 60 mm Petri dish was divided into two segments, a positive and a negative side, with a 0.5 cm 'dead zone' either side of the centre point. The petri dish was filled with 15 ml of 0.25% w/v agar which was allowed to solidify. 3 ml of 0.25% w/v agar slurry in spring water (pH 7, agitated with a magnetic stirrer for several hours to give a smooth consistency) was added to the petri dish and spread evenly over the surface. Root diffusate (attractant) and water only (control) 0.25% agar plugs were embedded in the agar slurry, either side of the assay arena. Root diffusate was collected from 10 tomato plants, aged 3–6 weeks in 1 litre pots, by pouring 500 ml of ddH20 through the soil three times. Diffusate from each plant was combined, filter sterilised and stored at 4°C for a maximum of 1 month. Root diffusate agar plugs were made by melting 1.25% agar in ddH20, cooling to 50°C before mixing with 4 parts of root diffusate. The agar was then allowed to solidify at room temperature. 100 uNLP pre-treated M. incognita or G. pallida J2s were added by pipette to the centre of the plate. J2s which moved out of the 'dead zone' after 3 hours were counted and their location (+/-) scored. The distribution of J2s were used to create a chemotaxis index for each plate, which formed one replicate, a total of 10 replicates where completed for each uNLP treatment.

G. pallida J2s [4] = experiment: as above; assay type: in vivo, Globodera pallida; details: for CI score: Fig 2A, J2s incubated in 100 μM uNLP for 24 h, tomato cv. Moneymaker root exudate vs water agar plugs, counted after 3 h, mean of 10 replicates of 100 J2s, control 0.4154; for effect on chemosensation (in words): 100 μM uNLP, 24 h, relative to controls
Experimental: as §1, §4

G. pallida J2s [5] = experiment: Serotonin-induced stylet thrusting assay; assay type: in vivo, Globodera pallida; details: for effect on serotonergic-induced stylet thrusting (in words): 100 μM uNLP, 24 h, 2 mM serotonin, relative to controls; for % Thrusting: Fig 2C, J2s incubated in 100 μM uNLP for 24 h, stylet thrusts in 2 mM serotonin, counted 1 min, normalised to control = 100%, mean, at least 30 J2s
Experimental: as §1, §2

G. pallida J2s [6] = experiment: Tomato invasion assay with uNLP pre-treated J2s; assay type: in vivo, Globodera pallida; details: Fig 2B; 500 J2s incubated in 100 μM uNLP for 24 h; single tomato seedling, 24 h at 18°C; normalised to negative control = 100%; mean
Experimental: as §1, §3

AAENFDENNDIN [Mi-NLP-18d, predicted unamidated NLP of M. incognita, synthesised]
effect on serotonergic-induced stylet thrusting (in words) (M. incognita J2s [1]): agonise serotonergic stylet thrusting
% Thrusting (M. incognita J2s [1]): 147.70%
effect on host invasion (in words) (M. incognita J2s [2]): reduce host invasion rates
% Invasion (M. incognita J2s [2]): 34.21%
effect on chemosensation (in words) (M. incognita J2s [3]): no negative impact on J2 chemosensory ability

AFDLFTGPGFTGMD [Gp-NLP-15h, predicted unamidated NLP of G. pallida, synthesised]
CI score (G. pallida J2s [4]): -0.06784

AFDRLDNSFMLL [Mi-NLP-8d, predicted unamidated NLP of M. incognita, synthesised]
% Invasion (M. incognita J2s [2]): 29.31%

AFDRLDVSPFDFDAMT [Mi-NLP-8a, predicted unamidated NLP of M. incognita, synthesised]
% Thrusting (M. incognita J2s [1]): 126.10%
CI score (M. incognita J2s [3]): 0.018

AFDSFAGNGFTGFD [Mi-NLP-15f, predicted unamidated NLP of M. incognita, synthesised]
effect on serotonergic-induced stylet thrusting (in words) (M. incognita J2s [1]): reduces stylet thrusting rate
% Thrusting (M. incognita J2s [1]): 75.18%
effect on host invasion (in words) (M. incognita J2s [2]): does not impact on host invasion
effect on chemosensation (in words) (M. incognita J2s [3]): inhibit chemosensation
CI score (M. incognita J2s [3]): -0.05

AFDSFGTPGFTGFD [Mi-NLP-15a, predicted unamidated NLP of M. incognita, synthesised]
effect on chemosensation (in words) (M. incognita J2s [3]): inhibit chemosensation
CI score (M. incognita J2s [3]): -0.01067

AFDSFTGPGFTGMD [Gp-NLP-15g, predicted unamidated NLP of G. pallida, synthesised]
CI score (G. pallida J2s [4]): -0.2208

AGARAFQRPDFDDASYEL [Mi-NLP-9a, predicted unamidated NLP of M. incognita, synthesised]
% Invasion (M. incognita J2s [2]): 45.59%

AGGRLFRMVDLPDGDDFVPEG [Gp-NLP-21e, predicted unamidated NLP of G. pallida, synthesised]
CI score (G. pallida J2s [4]): -0.3804

ALDILDGDDFTGFS [Gp-NLP-14e, predicted unamidated NLP of G. pallida, synthesised]
CI score (G. pallida J2s [4]): -0.0641

ALDILESDDFGGF [Gp-NLP-14a, predicted unamidated NLP of G. pallida, synthesised]
CI score (G. pallida J2s [4]): -0.3765

ALDLMEGDGFGGGFD [Mi-NLP-14b, predicted unamidated NLP of M. incognita, synthesised]
CI score (M. incognita J2s [3]): -0.1155

ALDMLEGDDFIGMQ [Mi-NLP-14a, predicted unamidated NLP of M. incognita, synthesised]
effect on serotonergic-induced stylet thrusting (in words) (M. incognita J2s [1]): inhibition; also recorded: reduces stylet thrusting rate
% Thrusting (M. incognita J2s [1]): 61.60%
effect on host invasion (in words) (M. incognita J2s [2]): does inhibit host invasion
% Invasion (M. incognita J2s [2]): 44.61%

ALDMMEGDDFIGL [Mi-NLP-14c, predicted unamidated NLP of M. incognita, synthesised]
effect on serotonergic-induced stylet thrusting (in words) (M. incognita J2s [1]): excitation; also recorded: agonise serotonergic stylet thrusting
% Thrusting (M. incognita J2s [1]): 134.70%
effect on host invasion (in words) (M. incognita J2s [2]): reduce host invasion rates
% Invasion (M. incognita J2s [2]): 20.96%
effect on chemosensation (in words) (M. incognita J2s [3]): no negative impact on J2 chemosensory ability

FAPRQFAFA [Mi-NLP-18a, predicted unamidated NLP of M. incognita, synthesised]
effect on host invasion (in words) (M. incognita J2s [2]): inhibited
% Invasion (M. incognita J2s [2]): 25.88%
effect on chemosensation (in words) (M. incognita J2s [3]): inhibited
CI score (M. incognita J2s [3]): -0.1353

FNDDELSSLPFNFEYFPSLDTH [Mi-NLP-8b, predicted unamidated NLP of M. incognita, synthesised]
% Invasion (M. incognita J2s [2]): 61.38%

GGARAFAKLEE [Mi-NLP-9c, predicted unamidated NLP of M. incognita, synthesised]
% Thrusting (M. incognita J2s [1]): 143.20%

GGARAFFGDADGPFNSASYWAP [Gp-NLP-21h, predicted unamidated NLP of G. pallida, synthesised]
effect on chemosensation (in words) (G. pallida J2s [4]): inhibit chemosensation
CI score (G. pallida J2s [4]): -0.01564
effect on serotonergic-induced stylet thrusting (in words) (G. pallida J2s [5]): modulating stylet thrusting rates
% Thrusting (G. pallida J2s [5]): 116.80%

GGARAFNFFAPPDE [Gp-NLP-21a, predicted unamidated NLP of G. pallida, synthesised]
% Invasion (G. pallida J2s [6]): 178.90%

GGARAFNGAEETLLNVANLA [Gp-NLP-21i, predicted unamidated NLP of G. pallida, synthesised]
effect on chemosensation (in words) (G. pallida J2s [4]): inhibit chemosensation
CI score (G. pallida J2s [4]): -0.1733
effect on serotonergic-induced stylet thrusting (in words) (G. pallida J2s [5]): modulating stylet thrusting rates
% Thrusting (G. pallida J2s [5]): 117.70%

GGARPFYGFFGGGEGTW [Mi-NLP-9e, predicted unamidated NLP of M. incognita, synthesised]
% Invasion (M. incognita J2s [2]): 48.68%

GGARPFYGGGYMDGTW [Gp-NLP-21f, predicted unamidated NLP of G. pallida, synthesised]
CI score (G. pallida J2s [4]): 0.1456

GGARTFLVGE [Mi-NLP-9b, predicted unamidated NLP of M. incognita, synthesised]
effect on chemosensation (in words) (M. incognita J2s [3]): inhibit chemosensation
CI score (M. incognita J2s [3]): -0.07417

GGTRAFNFFVSDALPSSYE [Gp-NLP-21c, predicted unamidated NLP of G. pallida, synthesised]
% Invasion (G. pallida J2s [6]): 14.07%

GMRNFAFA [Mi-NLP-18b, predicted unamidated NLP of M. incognita, synthesised]
effect on serotonergic-induced stylet thrusting (in words) (M. incognita J2s [1]): agonise serotonergic stylet thrusting
% Thrusting (M. incognita J2s [1]): 146.60%
effect on host invasion (in words) (M. incognita J2s [2]): reduce host invasion rates
% Invasion (M. incognita J2s [2]): 47.81%
effect on chemosensation (in words) (M. incognita J2s [3]): no negative impact on J2 chemosensory ability

SAFDSFVGRGFTGMD [Mi-NLP-15e, predicted unamidated NLP of M. incognita, synthesised]
% Invasion (M. incognita J2s [2]): 38.71%
effect on chemosensation (in words) (M. incognita J2s [3]): inhibit chemosensation
CI score (M. incognita J2s [3]): -0.01767

SFDSFTGSGFTGLD [Gp-NLP-15c, predicted unamidated NLP of G. pallida, synthesised]
effect on chemosensation (in words) (G. pallida J2s [4]): inhibit chemosensation
CI score (G. pallida J2s [4]): -0.227
effect on serotonergic-induced stylet thrusting (in words) (G. pallida J2s [5]): modulating stylet thrusting rates
% Thrusting (G. pallida J2s [5]): 56.07%

SFDSFVGKGFTGMD [Mi-NLP-15c, predicted unamidated NLP of M. incognita, synthesised]
effect on chemosensation (in words) (M. incognita J2s [3]): inhibit chemosensation
CI score (M. incognita J2s [3]): -0.359

SFDSLTGPGFTGLDT [Gp-NLP-15a, predicted unamidated NLP of G. pallida, synthesised]
CI score (G. pallida J2s [4]): -0.1451

SFGDYPFGSRTFAFA [Mi-NLP-18c, predicted unamidated NLP of M. incognita, synthesised]
% Thrusting (M. incognita J2s [1]): 175.50%

SSLASGRIGFRPA [Mi-NLP-2, predicted unamidated NLP of M. incognita, synthesised]
% Thrusting (M. incognita J2s [1]): 164.40%

SSQFGGENSFARFAFA [Mi-NLP-18e, predicted unamidated NLP of M. incognita, synthesised]
% Invasion (M. incognita J2s [2]): 46.49%
